Target: T1, Dimer of Gag-Pol polyprotein [489-587] (Human immunodeficiency virus 1, UniProt P12497)
T1 construct: 489-587
Experiment: Protease Inhibition Assay
Procedure: The inhibitory activities of the compounds toward HIV-1 PR were determined by sodium dodecyl sulfate-polyacrylamide gel electrophoresis (SDS-PAGE) assay. The IC50 values of active compounds were determined using the partially purified protease and the synthetic substrate Ac-Ser-Gln-AsnTyr-Pro-Ile-Val-NH2.

SMILES	IC50 [nM]
Cc1ccc(C(=O)N[C@@H](Cc2ccc(C(F)(F)F)cc2)[C@H](O)C(=O)N2C[C@@H](Cl)C[C@H]2C(=O)NC(C)(C)C)c(C)c1O [(2S,4S)-N-tert-butyl-4-chloro-1-[(2S,3S)-2-hydroxy-3-[(3-hydroxy-2,4-dimethylphenyl)formamido]-4-[4-(trifluoromethyl)phenyl]butanoyl]pyrrolidine-2-carboxamide]	6.3
Cc1cc(O)c(C)c(C(=O)N[C@@H](Cc2ccc(-c3ccccc3)cc2)[C@H](O)C(=O)N2C[C@@H](Cl)C[C@H]2C(=O)NC(C)(C)C)c1 [(3-Hydroxy-2,5-dimethylbenzoyl)-{2(S)-hydroxy-3(S)-amino-4-(4-phenyl)-phenylbutanoyl}-4(S)-Cl-Pro-NH-t-Bu]	1.3
Cc1c(O)cccc1C(=O)N[C@@H](Cc1ccccc1)[C@H](O)C(=O)N1C[C@@H](Cl)C[C@H]1C(=O)NC(C)(C)C [(3-Hydroxy-2-methylbenzoyl)-(2(S)-hydroxy-3(S)-amino-phenylbutanoyl)-4(S)-Cl-Pro-NH-t-Bu]	0.9
Cc1cccc(C[C@H](NC(=O)c2ccc(C)c(O)c2C)[C@H](O)C(=O)N2C[C@@H](Cl)C[C@H]2C(=O)NC(C)(C)C)c1 [(3-Hydroxy-2,4-dimethylbenzoyl)-(2(S)-hydroxy-3(S)-amino-4-m-tolylbutanoyl)-4(S)-Cl-Pro-NH-t-Bu]	2.5
Cc1cc(O)c(C)c(C(=O)N[C@@H](Cc2ccccc2)[C@H](O)C(=O)N2C[C@@H](Cl)C[C@H]2C(=O)NC(C)(C)C)c1 [(2S,4S)-N-tert-butyl-4-chloro-1-[(2S,3S)-2-hydroxy-3-[(3-hydroxy-2,5-dimethylphenyl)formamido]-4-phenylbutanoyl]pyrrolidine-2-carboxamide]	1.3
Cc1c(O)cc(F)cc1C(=O)N[C@@H](Cc1ccc2ccccc2c1)[C@H](O)C(=O)N1C[C@@H](Cl)C[C@H]1C(=O)NC(C)(C)C [(2S,4S)-N-tert-butyl-4-chloro-1-[(2S,3S)-3-[(5-fluoro-3-hydroxy-2-methylphenyl)formamido]-2-hydroxy-4-(naphthalen-2-yl)butanoyl]pyrrolidine-2-carboxamide]	1.2
Cc1c(O)cccc1C(=O)N[C@@H](Cc1cccc(F)c1)[C@H](O)C(=O)N1C[C@@H](Cl)C[C@H]1C(=O)NC(C)(C)C [(2S,4S)-N-tert-butyl-4-chloro-1-[(2S,3S)-4-(3-fluorophenyl)-2-hydroxy-3-[(3-hydroxy-2-methylphenyl)formamido]butanoyl]pyrrolidine-2-carboxamide]	0.6
Cc1c(O)cc(F)cc1C(=O)N[C@@H](Cc1cccc(C(F)(F)F)c1)[C@H](O)C(=O)N1C[C@@H](Cl)C[C@H]1C(=O)NC(C)(C)C [(5-Fluoro-3-hydroxy-2-methylbenzoyl)-{2(S)-hydroxy-3(S)-amino-4-(3-trifluoromethyl)-phenylbutanoyl}-4(S)-Cl-Pro-NH-t-Bu]	2.1
Cc1c(O)cccc1C(=O)N[C@@H](Cc1ccc(F)cc1F)[C@H](O)C(=O)N1C[C@@H](Cl)C[C@H]1C(=O)NC(C)(C)C [(2S,4S)-N-tert-butyl-4-chloro-1-[(2S,3S)-4-(2,4-difluorophenyl)-2-hydroxy-3-[(3-hydroxy-2-methylphenyl)formamido]butanoyl]pyrrolidine-2-carboxamide]	1.6
Cc1ccc(C[C@H](NC(=O)c2cccc(O)c2C)[C@H](O)C(=O)N2C[C@@H](Cl)C[C@H]2C(=O)NC(C)(C)C)cc1C [(2S,4S)-N-tert-butyl-4-chloro-1-[(2S,3S)-4-(3,4-dimethylphenyl)-2-hydroxy-3-[(3-hydroxy-2-methylphenyl)formamido]butanoyl]pyrrolidine-2-carboxamide]	1.2
COc1ccc(C[C@H](NC(=O)c2cccc(O)c2C)[C@H](O)C(=O)N2C[C@@H](Cl)C[C@H]2C(=O)NC(C)(C)C)cc1 [(3-Hydroxy-2-methylbenzoyl)-{2(S)-hydroxy-3(S)-amino-4-(4-methoxy)-phenylbutanoyl}-4(S) -Cl-Pro-NH-t-Bu]	0.9
